Our source for the IC50 values is patent publication US12473304B2, “Heterocyclic PAD4 inhibitors” (BRISTOL-MYERS SQUIBB COMPANY, priority 2020, dated 2025).

As a reminder, the IC50 is the concentration at which inhibition is half-maximal.

human PAD4 (hPAD4), sequence (Q9UM07 whole entry): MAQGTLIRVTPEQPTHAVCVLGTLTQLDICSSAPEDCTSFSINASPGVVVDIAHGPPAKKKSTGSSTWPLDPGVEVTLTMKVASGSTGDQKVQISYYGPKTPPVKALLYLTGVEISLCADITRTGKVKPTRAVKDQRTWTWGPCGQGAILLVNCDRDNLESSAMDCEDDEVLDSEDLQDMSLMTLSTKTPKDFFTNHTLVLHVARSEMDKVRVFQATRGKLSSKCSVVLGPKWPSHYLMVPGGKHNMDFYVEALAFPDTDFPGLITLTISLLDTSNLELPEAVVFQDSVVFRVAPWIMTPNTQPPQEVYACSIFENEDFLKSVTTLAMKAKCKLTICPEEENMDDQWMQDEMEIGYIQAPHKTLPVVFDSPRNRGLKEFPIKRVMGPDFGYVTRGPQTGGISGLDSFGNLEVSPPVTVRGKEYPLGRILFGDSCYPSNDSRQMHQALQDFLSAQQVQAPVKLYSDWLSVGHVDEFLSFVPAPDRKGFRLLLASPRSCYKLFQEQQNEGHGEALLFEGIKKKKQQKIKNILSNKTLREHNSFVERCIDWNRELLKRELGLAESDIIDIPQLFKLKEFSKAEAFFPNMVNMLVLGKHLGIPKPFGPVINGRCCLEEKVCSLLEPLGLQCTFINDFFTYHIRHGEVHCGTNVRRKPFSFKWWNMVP

The assay has as its target human PAD4 (hPAD4) (Homo sapiens (Human), UniProt Q9UM07). Put plainly: RFMS Human PAD4 Functional Assay 1. Format: biochemical. Particulars: RFMS assay 1; 5 nM hPAD4, 250 μM BAEE substrate, 50 μM calcium, 37° C. The procedure, abridged: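 Citrullination product read by RapidFire triple-quad MRM against a modified-citrulline internal standard, after TCA stop and 30 min phenyl glyoxal step at 37 °C. Reaction: 250 μM BAEE, 5 nM human PAD4, 90 min at 37 °C, pH 7.5 HEPES buffer with 50 μM calcium and 5 μM TPEN, following 30 min compound–enzyme preincubation (max 50 μM).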
As for `Cc1c(-c2cc3ccc(-c4ccc(C(N)=O)c(Cl)c4)nc3n2CC2CC2)nn2cc(C(=O)N3C[C@H](N)C[C@@H](F)C3)ccc12` [Example 85, 4-(2-(6-((3R,5R)-3-Amino-5-fluoropiperidine-1-carbonyl)-3-methylpyrazolo[1,5-a]pyridin-2-yl)-1-(cyclopropylmethyl)-1H-pyrrolo[2,3-b]pyridin-6-yl)-2-chlorobenzamide], the IC50 was 327 nM.
Next, `COc1cc(C(=O)N2CC3CCC2[C@@H]3N)cc2sc(-c3cc4ccc(-c5cccc(O)c5F)nc4n3CC3CC3)c(C)c12` (stereo partly drawn) [Example 134, ((7R)-7-Amino-2-azabicyclo[2.2.1]heptan-2-yl)(2-(1-(cyclopropylmethyl)-6-(2-fluoro-3-hydroxyphenyl)-1H-pyrrolo[2,3-b]pyridin-2-yl)-4-methoxy-3-methylbenzo[b]thiophen-6-yl)methanone]: 212 nM; `Cc1c(-c2cc3cccc(C4CCN(C(=O)[C@H]5CCC[C@@H](O)C5)CC4)c3n2CC2CC2)nn2cc(C(=O)N3C[C@H](N)C[C@@H](F)C3)ccc12` [Example 448, ((3R,5R)-3-amino-5-fluoropiperidin-1-yl)(2-(1-(cyclopropylmethyl)-7-(1-((1S,3R)-3-hydroxycyclohexane-1-carbonyl)piperidin-4-yl)-1H-indol-2-yl)-3-methylpyrazolo[1,5-a]pyridin-6-yl)methanone]: 70 nM.
Turning to `Cc1c(-c2cc3ccc(-c4cccc(O)c4F)cc3n2CC2CC2)oc2cc(C(=O)N3C[C@H](N)C[C@@H](F)C3)ccc12` [Example 198, ((3R,5R)-3-Amino-5-fluoropiperidin-1-yl)(2-(1-(cyclopropylmethyl)-6-(2-fluoro-3-hydroxyphenyl)-1H-indol-2-yl)-3-methylbenzofuran-6-yl)methanone], the IC50 worked out at 3260 nM.
Turning to `Cc1cc(-c2ccc3cc(-c4nn5cc(C(=O)N6CCC[C@@H](N)C6)cc(F)c5c4C)n(CC4CC4)c3n2)ccc1C(N)=O` [Example 286, 4-(2-{6-[(3R)-3-Aminopiperidine-1-carbonyl]-4-fluoro-3-methylpyrazolo[1,5-a]pyridin-2-yl}-1-(cyclopropylmethyl)-1H-pyrrolo[2,3-b]pyridin-6-yl)-2-methylbenzamide], the IC50 is 540 nM.
Turning to `Cc1c(-c2cc3cccnc3n2CC2CC2)oc2cc(C(=O)N3CC4CCC3[C@@H]4N)ccc12` (stereo partly drawn) [Example 164, ((7R)-7-Amino-2-azabicyclo[2.2.1]heptan-2-yl)(2-(1-(cyclopropylmethyl)-1H-pyrrolo[2,3-b]pyridin-2-yl)-3-methylbenzofuran-6-yl)methanone], the IC50 was determined as 625 nM.
Turning to `COc1cc(C(=O)N2C[C@H](N)C[C@@H](F)C2)cn2nc(-c3cc4ccc(C)nc4n3CC3CC3)c(C)c12` [Example 17, ((3R,5R)-3-Amino-5-fluoropiperidin-1-yl)(2-(1-(cyclopropylmethyl)-6-methyl-1H-pyrrolo[2,3-b]pyridin-2-yl)-4-methoxy-3-methylpyrazolo[1,5-a]pyridin-6-yl)-methanone], the IC50 worked out at 75 nM.
Next, `COC(=O)Nc1ccc(-c2ccc3cc(-c4nn5cc(C(=O)N6CC7CCC6[C@@H]7N)ccc5c4C)n(CC4CC4)c3n2)cn1` (stereo partly drawn) [Example 308, Methyl N-[5-(2-{6-[(7R)-7-amino-2-azabicyclo[2.2.1]heptane-2-carbonyl]-3-methylpyrazolo[1,5-a]pyridin-2-yl}-1-(cyclopropylmethyl)-1H-pyrrolo[2,3-b]pyridin-6-yl)pyridin-2-yl]carbamate]: 50 nM; `COc1cc(C(=O)N2CCC[C@@H](N)C2)cn2nc(-c3cc4cccc(C5CCN(C(C)=O)CC5)c4n3CC3CC3)c(C)c12` [Example 410, (R)-1-(4-(2-(6-(3-Aminopiperidine-1-carbonyl)-4-methoxy-3-methylpyrazolo[1,5-a]pyridin-2-yl)-1-(cyclopropylmethyl)-1H-indol-7-yl)piperidin-1-yl)ethan-1-one]: 90 nM; `Cc1c(-c2cc3ccc(-c4ccc5c(c4)C(=O)NC5)nc3n2CC2CC2)nn2cc(C(=O)N3CC4CCC3[C@@H]4N)ccc12` (stereo partly drawn) [Example 65, 6-(2-(6-((7R)-7-Amino-2-azabicyclo[2.2.1]heptane-2-carbonyl)-3-methylpyrazolo[1,5-a]pyridin-2-yl)-1-(cyclopropylmethyl)-1H-pyrrolo[2,3-b]pyridin-6-yl)isoindolin-1-one]: 25 nM.
Next, `COc1nc(C(=O)N2CC3(CNC3)C2)cn2nc(-c3cc4cccnc4n3CC3CC3)c(C)c12` [Example 116, (2-(1-(Cyclopropylmethyl)-1H-pyrrolo[2,3-b]pyridin-2-yl)-4-methoxy-3-methylpyrazolo[1,5-a]pyrazin-6-yl)(2,6-diazaspiro[3.3]heptan-2-yl)methanone]: 22800 nM; `COc1cc(C(=O)N2CC3CCC2[C@@H]3N)cc2sc(-c3cc4ccc(-c5cccc(F)c5C)cc4n3CC3CC3)c(C)c12` (stereo partly drawn) [Example 128, ((7R)-7-Amino-2-azabicyclo[2.2.1]heptan-2-yl)(2-(1-(cyclopropylmethyl)-6-(3-fluoro-2-methylphenyl)-1H-indol-2-yl)-4-methoxy-3-methylbenzo[b]thiophen-6-yl)methanone]: 4340 nM.
In the case of `COc1cc(C(=O)N2C[C@H](N)C[C@@H](F)C2)cn2nc(-c3cc4ccc(-c5cccc(CNS(C)(=O)=O)c5)cc4n3CC3CC3)c(C)c12` [Example 211, N-{[3-(2-{6-[(3R,5R)-3-Amino-5-fluoropiperidine-1-carbonyl]-4-methoxy-3-methylpyrazolo[1,5-a]pyridin-2-yl}-1-(cyclopropylmethyl)-1H-indol-6-yl)phenyl]methyl}methanesulfonamide], the IC50 came out at 1050 nM.
For `COc1nc(C(=O)N2CC3CCC2[C@@H]3N)cn2nc(-c3cc4ccccc4n3CC3CC3)c(C)c12` (stereo partly drawn) [Example 113, ((7R)-7-Amino-2-azabicyclo[2.2.1]heptan-2-yl)(2-(1-(cyclopropylmethyl)-1H-indol-2-yl)-4-methoxy-3-methylpyrazolo[1,5-a]pyrazin-6-yl)methanone], the IC50 was found to be 283 nM.
Consider `Cc1cc(C(N)=O)c(F)cc1-c1ccc2cc(-c3nn4cc(C(=O)N5CC6CCC5[C@@H]6N)cc(F)c4c3C)n(CC3CC3)c2n1` (stereo partly drawn) [Example 260, 4-(2-{6-[(7R)-7-Amino-2-azabicyclo[2.2.1]heptane-2-carbonyl]-4-fluoro-3-methylpyrazolo[1,5-a]pyridin-2-yl}-1-(cyclopropylmethyl)-1H-pyrrolo[2,3-b]pyridin-6-yl)-2-fluoro-5-methylbenzamide], for which the IC50 amounted to 220 nM.
As for `COc1cc(C(=O)N2CCC[C@@H](N)C2)cn2nc(-c3cc4cccc(OC[C@@H]5CCC(=O)N5)c4n3CC3CC3)c(C)c12` [Example 559, (S)-5-(((2-(6-((R)-3-Aminopiperidine-1-carbonyl)-4-methoxy-3-methylpyrazolo[1,5-a]pyridin-2-yl)-1-(cyclopropylmethyl)-1H-indol-7-yl)oxy)methyl)pyrrolidin-2-one], the IC50 was 80 nM.
Next, `Cc1c(-c2cc3ccc(Cl)nc3n2CC2CC2)nn2cc(C(=O)N3CCC[C@@H](N)C3)cc(Cl)c12` [Example 291, (3R)-1-{4-Chloro-2-[6-chloro-1-(cyclopropylmethyl)-1H-pyrrolo[2,3-b]pyridin-2-yl]-3-methylpyrazolo[1,5-a]pyridine-6-carbonyl}piperidin-3-amine]: 5890 nM; `Cc1ccc2cc(-c3nn4cc(C(=O)N5C[C@H](N)C[C@@H](F)C5)cc(F)c4c3C)n(CC3CC3)c2n1` [Example 54, ((3R,5R)-3-Amino-5-fluoropiperidin-1-yl)(2-(1-(cyclopropylmethyl)-6-methyl-1H-pyrrolo[2,3-b]pyridin-2-yl)-4-fluoro-3-methylpyrazolo[1,5-a]pyridin-6-yl)methanone]: 358 nM.
Next, `COc1cc(C(=O)N2CCC[C@@H](N)C2)cn2nc(-c3cc4ccc(-c5ccc(CNC(C)=O)cc5)cc4n3CC3CC3)c(C)c12` [Example 228, N-{[4-(2-{6-[(3R)-3-Aminopiperidine-1-carbonyl]-4-methoxy-3-methylpyrazolo[1,5-a]pyridin-2-yl}-1-(cyclopropylmethyl)-1H-indol-6-yl)phenyl]methyl}acetamide]: 930 nM; `COc1cc(C(=O)N2CC3CCC2[C@@H]3N)cn2nc(-c3cc4ccccc4n3CC3CC3)c(C)c12` (stereo partly drawn) [Example 22, ((7R)-7-Amino-2-azabicyclo[2.2.1]heptan-2-yl)(2-(1-(cyclopropylmethyl)-1H-indol-2-yl)-4-methoxy-3-methylpyrazolo[1,5-a]pyridin-6-yl)methanone]: 2150 nM; `Cc1c(-c2cc3ccc(OC[C@@H]4CCC(=O)N4)nc3n2CC2CC2)nn2cc(C(=O)N3CC4CCC3[C@@H]4N)cc(F)c12` (stereo partly drawn) [Example 274, (5S)-5-{[(2-{6-[(7R)-7-Amino-2-azabicyclo[2.2.1]heptane-2-carbonyl]-4-fluoro-3-methylpyrazolo[1,5-a]pyridin-2-yl}-1-(cyclopropylmethyl)-1H-pyrrolo[2,3-b]pyridin-6-yl)oxy]methyl}pyrrolidin-2-one]: 270 nM.
Take `COCC(=O)N1CCC(c2cc(F)cc3cc(-c4nn5cc(C(=O)N6C[C@H](N)C[C@@H](F)C6)cc(OC)c5c4C)n(CC4CC4)c23)CC1` [Example 481, 1-(4-(2-(6-((3R,5R)-3-Amino-5-fluoropiperidine-1-carbonyl)-4-methoxy-3-methylpyrazolo[1,5-a]pyridin-2-yl)-1-(cyclopropylmethyl)-5-fluoro-1H-indol-7-yl)piperidin-1-yl)-2-methoxyethan-1-one]: the IC50 stood at 120 nM.
For `Cc1c(-c2cc3cccc(C4CCN(C(=O)[C@@H](C)O)CC4)c3n2CC2CC2)nn2cc(C(=O)N3CC4CCC3[C@@H]4N)ccc12` (stereo partly drawn) [Example 473, (2R)-1-(4-(2-(6-((7R)-7-Amino-2-azabicyclo[2.2.1]heptane-2-carbonyl)-3-methylpyrazolo[1,5-a]pyridin-2-yl)-1-(cyclopropylmethyl)-1H-indol-7-yl)piperidin-1-yl)-2-hydroxypropan-1-one], the IC50 was 3 nM.
